Test results reported in patent US20250282768A1 (Janssen Pharmaceutica NV, priority 2022, published 2025).

Tested on: p-IKKa levels in L363 (NIK translocated multiple myeloma) cells
Assay: Assay 2: Effect of compounds on p-IKKa levels in L363 (NIK translocated multiple myeloma) cells
Type: cell-based
Conditions: Homo sapiens, L-363, 6 h, read-out: Assay 2 IC50 (nM), p-IKKa (Ser 176/180) in BAFF stimulated L363 cells with MG132, 6 h; average if tested more than once
Protocol: Assay 2: Effect of Compounds on p-IKKa Levels in L363 (NIK Translocated Multiple Myeloma) Cells
All compounds tested were dissolved and serially diluted in DMSO, 1:3 dilution for 11 points in an Echo compatible plate. 100% DMSO was added to columns 12 and 24 of the plate to serve as high and low signal controls. This compound plate was used to spot 20 nL of compound or DMSO into a Greiner 384 well TC plate (781080). The final DMSO concentration was 0.3% (v/v) in cell assays. Human L363 cells (ATCC) were cultured in RPM11640 medium supplemented with GlutaMax, non-essential amino acids, sodium pyruvate and 10% fetal bovine serum. Cells were routinely maintained at densities of 0.2×10^6 cells per ml—2×10^6 cells per mL at 37° C. in a humidified 5% CO2 atmosphere incubator. Cells were passaged twice a week splitting back to obtain the low density. The day before the assay, cells were washed twice in HBSS (Hank's Balanced Salt Solution), resuspended in Dulbecco's Modified Eagle Medium (DMEM)+0.5% IgG and protease free BSA (Jackson Immuno Research Laboratories), +/−250 ng/ml recombinant human B-cell activating factor (BAFF/BLyS/TNFSF13B) and incubated overnight at 37° C. in a humidified 5% CO2 atmosphere (bulk stimulation with or without BAFF). The next day, the cell concentration was adjusted to 1×10^7 cells/ml in DMEM+/−250 ng/ml BAFF +/−10 μM MG132 and plated at 10 μl/well into compound or DMSO spotted 384 well TC plates. Seeded cells were incubated at 37° C. in a humidified 5% CO2 atmosphere for 6 h. After 6 h, the plates were removed from the incubator and cell lysis was achieved by the addition of 2.5 μl 5×lysis buffer containing protease and phosphatase inhibitors, followed by shaking on a plate shaker at room temperature for 15 min. At the end of this incubation, lysed cells were sequentially treated and incubated with acceptor and donor bead mixes according to the manufacturer's protocol for a 1 plate/2-incubation suspension cell assay (AlphaLISA SureFire Ultra p-IKKa (Ser 176/180) Assay Kit (Perkin Elmer). Plates were read using an EnVision Multilabel Plate Reader (Perkin Elmer). Within an experiment, a concentration response curve for each compound was run in duplicate. The signal obtained in the test wells was normalized using high signal (BAFF stimulated cells, DMSO, MG132) and low signal (unstimulated cells, DMSO) controls. To determine the IC50, a sigmoidal curve was fitted to the plot of % inhibition versus Log10 compound concentration.

## CN1CC[C@@](O)(c2cc(-c3cccc(-c4ccnc(Nc5cnn(CC(F)F)c5)n4)n3)no2)C1=O [Example 56, (R)-3-(3-(6-(2-((1-(2,2-Difluoroethyl)-1H-pyrazol-4-yl)amino)pyrimidin-4-yl)pyridin-2-yl)isoxazol-5-yl)-3-hydroxy-1-methylpyrrolidin-2-one]
  IC50: < 50 nM

## [2H]C([2H])([2H])n1cc(Nc2nccc(-c3cccc(-c4cc([C@]5(O)CCN(C)C5=O)on4)n3)n2)cn1 [Example 73, (R)-3-Hydroxy-1-methyl-3-(3-(6-(2-((1-(methyl-d3)-1H-pyrazol-4-yl)amino)pyrimidin-4-yl)pyridin-2-yl)isoxazol-5-yl)pyrrolidin-2-one]
  IC50: < 50 nM

## CN1CC[C@@](O)(c2cc(-c3cccc(-c4ccnc(N[C@H]5CC[C@H](O)C5)n4)c3)no2)C1=O [Example 13, (R)-3-Hydroxy-3-(3-(3-(2-(((1 S,3S)-3-hydroxycyclopentyl)amino)pyrimidin-4-yl)phenyl)isoxazol-5-yl)-1-methylpyrrolidin-2-one]
  IC50: > 500 nM

## C[C@@H](Nc1nccc(-c2cccc(-n3cc([C@]4(O)CCN(C)C4=O)nn3)n2)n1)c1ncccn1 (single isomer, unassigned) [Example 142]
  IC50: 50 to 500 nM

## CN1CC[C@@](O)(c2cc(-c3cccc(-c4ccnc(Nc5cnn6ccccc56)n4)n3)no2)C1=O [Example 53, (R)-3-Hydroxy-1-methyl-3-(3-(6-(2-(pyrazolo[1,5-a]pyridin-3-ylamino)pyrimidin-4-yl)pyridin-2-yl)isoxazol-5-yl)pyrrolidin-2-one]
  IC50: < 50 nM

## CN1CC[C@](O)(c2cnc(-c3cccc(-c4ccnc(Nc5ccn(C)n5)n4)n3)s2)C1=O (single isomer, unassigned) [Example 79]
  IC50: > 500 nM

## CN1CC[C@@](O)(c2cc(-c3cccc(-c4ccnc(Nc5cc6n(n5)CC5(CC5)C6)n4)n3)no2)C1=O [Example 300, (R)-3-(3-(6-(2-((4′H,6′H-Spiro[cyclopropane-1,5′-pyrrolo[1,2-b]pyrazol]-2′-yl)amino)pyrimidin-4-yl)pyridin-2-yl)isoxazol-5-yl)-3-hydroxy-1-methylpyrrolidin-2-one]
  IC50: < 50 nM

## Cc1nn(-c2nccc(-c3cccc(-c4cc([C@]5(O)CCN(C)C5=O)on4)n3)n2)cc1N [Example 37, (R)-3-(3-(6-(2-(4-Amino-3-methyl-1H-pyrazol-1-yl)pyrimidin-4-yl)pyridin-2-yl)isoxazol-5-yl)-3-hydroxy-1-methylpyrrolidin-2-one]
  IC50: > 500 nM

## CN1CC[C@@](O)(c2cc(-c3cccc(-c4ccnc(Nc5cnn(CCN6CCOCC6)c5)n4)n3)no2)C1=O [Example 62, (R)-3-Hydroxy-1-methyl-3-(3-(6-(2-((1-(2-morpholinoethyl)-1H-pyrazol-4-yl)amino)pyrimidin-4-yl)pyridin-2-yl)isoxazol-5-yl)pyrrolidin-2-one]
  IC50: < 50 nM

## C[C@H](Nc1nccc(-c2cccc(-c3cc([C@]4(O)CCN(C)C4=O)on3)n2)n1)C(=O)N1CCCC1 [Example 184, (R)-3-Hydroxy-1-methyl-3-(3-(6-(2-(((S)-1-oxo-1-(pyrrolidin-1-yl)propan-2-yl)amino)pyrimidin-4-yl)pyridin-2-yl)isoxazol-5-yl)pyrrolidin-2-one]
  IC50: 50 to 500 nM

## CN1CC[C@@](O)(c2cc(-c3cccc(-c4ccnc(Nc5cnc6c(c5)COCC6)n4)n3)no2)C1=O [Example 468, (R)-3-(3-(6-(2-((7,8-Dihydro-5H-pyrano[4,3-b]pyridin-3-yl)amino)pyrimidin-4-yl)pyridin-2-yl)isoxazol-5-yl)-3-hydroxy-1-methylpyrrolidin-2-one]
  IC50: < 50 nM

## C[C@H](Nc1nccc(-c2cccc(-c3cc([C@]4(O)CCN(C)C4=O)on3)n2)n1)C1CC1 [Example 441, (R)-3-(3-(6-(2-(((S)-1-Cyclopropylethyl)amino)pyrimidin-4-yl)pyridin-2-yl)isoxazol-5-yl)-3-hydroxy-1-methylpyrrolidin-2-one]
  IC50: > 500 nM

## CN1CCC(n2cc(Nc3nccc(-c4cccc(-c5cc([C@@]6(O)C(=O)N(C)CC6(F)F)on5)n4)n3)cn2)CC1 [Example 10, (R)-4,4-Difluoro-3-hydroxy-1-methyl-3-(3-(6-(2-((1-(1-methylpiperidin-4-yl)-1H-pyrazol-4-yl)amino)pyrimidin-4-yl)pyridin-2-yl)isoxazol-5-yl)pyrrolidin-2-one]
  IC50: 50 to 500 nM

## C[C@H](Nc1nccc(-c2cccc(-c3cc([C@]4(O)CCN(C)C4=O)on3)n2)n1)C(=O)N1CC(F)(F)C1 [Example 170, (R)-3-(3-(6-(2-(((S)-1-(3,3-Difluoroazetidin-1-yl)-1-oxopropan-2-yl)amino)pyrimidin-4-yl)pyridin-2-yl)isoxazol-5-yl)-3-hydroxy-1-methylpyrrolidin-2-one]
  IC50: 50 to 500 nM

## Cc1c(Nc2nccc(-c3cccc(-c4cc([C@@]5(O)C(=O)N(C)CC5(F)F)on4)n3)n2)cnn1CC(C)(C)O [Example 242, (R)-4,4-Difluoro-3-hydroxy-3-(3-(6-(2-((1-(2-hydroxy-2-methylpropyl)-5-methyl-1H-pyrazol-4-yl)amino)pyrimidin-4-yl)pyridin-2-yl)isoxazol-5-yl)-1-methylpyrrolidin-2-one]
  IC50: 50 to 500 nM

## C[C@H](Nc1nccc(-c2cccc(-c3cc([C@]4(O)CCN(C)C4=O)on3)n2)n1)C(=O)N1CC(C(F)(F)F)C1 [Example 172, (R)-3-Hydroxy-1-methyl-3-(3-(6-(2-(((S)-1-oxo-1-(3-(trifluoromethyl)azetidin-1-yl)propan-2-yl)amino)pyrimidin-4-yl)pyridin-2-yl)isoxazol-5-yl)pyrrolidin-2-one]
  IC50: 50 to 500 nM

## CN1CC[C@@](O)(c2cc(-c3cccc(-c4ccnc(Nc5cnn6c5OCCC6)n4)n3)no2)C1=O [Example 194, (R)-3-(3-(6-(2-((6,7-Dihydro-5H-pyrazolo[5,1-b][1,3]oxazin-3-yl)amino)pyrimidin-4-yl)pyridin-2-yl)isoxazol-5-yl)-3-hydroxy-1-methylpyrrolidin-2-one]
  IC50: < 50 nM

## CN1CC[C@@](O)(c2cc(-c3cccc(-c4ccnc(NC5COCC(F)(F)C5)n4)n3)no2)C1=O (mixture of isomers) [Example 459, (3R)-3-(3-(6-(2-((5,5-Difluorotetrahydro-2H-pyran-3-yl)amino)pyrimidin-4-yl)pyridin-2-yl)isoxazol-5-yl)-3-hydroxy-1-methylpyrrolidin-2-one]
  IC50: 50 to 500 nM

## Cc1nnc(C(C)Nc2nccc(-c3cccc(-c4cc([C@]5(O)CCN(C)C5=O)on4)n3)n2)o1 (stereo partly drawn) [Example 385, (3R)-3-Hydroxy-1-methyl-3-(3-(6-(2-((1-(5-methyl-1,3,4-oxadiazol-2-yl)ethyl)amino)pyrimidin-4-yl)pyridin-2-yl)isoxazol-5-yl)pyrrolidin-2-one]
  IC50: 50 to 500 nM

## CN1CC[C@@](O)(c2cc(-c3cccc(-c4ccnc(Nc5ccon5)n4)n3)no2)C1=O [Example 186, (R)-3-Hydroxy-3-(3-(6-(2-(isoxazol-3-ylamino)pyrimidin-4-yl)pyridin-2-yl)isoxazol-5-yl)-1-methylpyrrolidin-2-one]
  IC50: 50 to 500 nM

## C[C@H](Nc1nccc(-c2cccc(-c3cc([C@]4(O)CCN(C)C4=O)on3)n2)n1)C(=O)N(C)c1ccccc1 [Example 181, (S)-2-((4-(6-(5-((R)-3-Hydroxy-1-methyl-2-oxopyrrolidin-3-yl)isoxazol-3-yl)pyridin-2-yl)pyrimidin-2-yl)amino)-N-methyl-N-phenylpropanamide]
  IC50: > 500 nM
